Source: ChEMBL document CHEMBL1201862, “PubChem BioAssay data set” (2004)
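Growth conditions: 96-well plates. Treatment: test compound, 48 hours, 5 concentrations. Analysis: linear interpolation between bracketing concentrations; unreached endpoints set to highest concentration. Here, GI50 denotes the concentration required for 50% inhibition of growth.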 Active and inactive are the calls of the source. Rule as the data show it: active = GI50 up to about 1.1 µM and inactive = higher.

Columns and labels:
Test in all cases: DTP human tumour cell line panel, 48 h
[1] = tested on: PC-3
[2] = tested on: IGROV-1
[3] = tested on: HL-60
[4] = tested on: T47D
[5] = tested on: TK-10
[6] = tested on: NCI-H23
[7] = tested on: SF-268
[8] = tested on: SK-MEL-28
[9] = tested on: Hs-578T
[10] = tested on: EKVX
[11] = tested on: KM12
[12] = tested on: RXF 393
[13] = tested on: DU-145
[14] = tested on: MDA-MB-231
[15] = tested on: SF-539
[16] = tested on: SR
[17] = tested on: OVCAR-3
[18] = tested on: SK-MEL-5
[19] = tested on: CAKI-1
[20] = tested on: Malme-3M
[21] = tested on: SW-620
[22] = tested on: A498
[23] = tested on: MOLT-4
[24] = tested on: U-251
[25] = tested on: M14
[26] = tested on: UACC-62
[27] = tested on: RPMI-8226
[28] = tested on: A549
[29] = tested on: OVCAR-4
[30] = tested on: HCT-15
[31] = tested on: SNB-75
[32] = tested on: 786-0
[33] = tested on: HOP-62
[34] = tested on: NCI/ADR-RES
[35] = tested on: SF-295
[36] = tested on: UACC-257
[37] = tested on: NCI-H460
[38] = tested on: HOP-92
[39] = tested on: ACHN
[40] = tested on: SN12C
[41] = tested on: SK-OV-3
[42] = tested on: MDA-MB-435
[43] = tested on: SK-MEL-2
[44] = tested on: LOX IMVI
[45] = tested on: OVCAR-8
[46] = tested on: NCI-H226
[47] = tested on: NCI-H522
[48] = tested on: CCRF-CEM
[49] = tested on: HCT-116
[50] = tested on: MCF7
[51] = tested on: HT-29
[52] = tested on: MDA-N
[53] = tested on: K562
[54] = tested on: BT-549
[55] = tested on: SNB-19
[56] = tested on: OVCAR-5
[57] = tested on: UO-31
[58] = tested on: COLO 205
[59] = tested on: HCC 2998

Measured: GI50

CN1CCc2c(sc3ncn(Nc4ccc(F)cc4)c(=N)c23)C1
inactive: [1] > 100 µM | [2] > 100 µM | [3] > 100 µM | [4] > 100 µM | [5] > 100 µM | [6] > 100 µM | [7] > 100 µM | [8] > 100 µM | [9] > 100 µM | [10] > 100 µM | [11] > 100 µM | [12] > 100 µM | [13] > 100 µM | [14] > 100 µM | [15] > 100 µM | [16] > 100 µM | [17] > 100 µM | [18] > 100 µM | [19] > 100 µM | [20] > 100 µM | [21] > 100 µM | [22] > 100 µM | [23] > 100 µM | [24] > 100 µM | [25] > 100 µM | [26] > 100 µM | [27] > 100 µM | [28] > 100 µM | [29] > 100 µM | [31] > 100 µM | [32] > 100 µM | [33] > 100 µM | [34] > 100 µM | [35] > 100 µM | [36] > 100 µM | [37] > 100 µM | [38] > 100 µM | [39] > 100 µM | [40] > 100 µM | [41] > 100 µM | [42] > 100 µM | [43] > 100 µM | [44] > 100 µM | [45] > 100 µM | [46] 92 µM | [47] 65 µM | [48] > 100 µM | [49] > 100 µM | [50] > 100 µM | [51] > 100 µM | [52] > 100 µM | [53] > 100 µM | [54] > 100 µM | [55] > 100 µM | [56] > 100 µM
> 100 µM: [30]

Nc1nc(N)c2ncn(-c3ccc(Br)cc3)c2n1
19.9 µM: [30]
active: [16] 0.119 µM
inactive: [1] 23 µM | [2] 5.38 µM | [4] 29.4 µM | [5] 35.1 µM | [6] 40.6 µM | [7] 15.4 µM | [8] > 43.3 µM | [9] 4.12 µM | [10] 5.45 µM | [57] 13.5 µM | [11] 14.4 µM | [12] 14.2 µM | [13] 24.5 µM | [14] 23.8 µM | [15] 14.7 µM | [17] 16.2 µM | [18] 32.5 µM | [19] 7.21 µM | [20] 10.6 µM | [21] 45.9 µM | [22] 15.6 µM | [23] 11.6 µM | [24] 24.9 µM | [25] 14.6 µM | [26] 17.1 µM | [27] 11.4 µM | [28] 33.1 µM | [29] > 38.3 µM | [31] 6.97 µM | [32] 28.1 µM | [33] 23.6 µM | [34] 10.7 µM | [35] 34.4 µM | [36] > 100 µM | [37] 34.9 µM | [39] 13.3 µM | [58] > 50.5 µM | [40] 16.9 µM | [41] 15 µM | [42] 39.2 µM | [43] 14.4 µM | [44] 27 µM | [45] 14.6 µM | [46] 40.6 µM | [47] 9.77 µM | [48] 8.43 µM | [49] 25.5 µM | [50] 20.3 µM | [51] 15.1 µM | [52] 60.4 µM | [53] 11 µM | [54] 97.7 µM | [59] 37.7 µM | [55] > 59.4 µM | [56] 20.9 µM
